Assay results reported in patent publication EP2246329A1, “4(1H)-pyridinone derivatives and their use as antimalaria agents” (Glaxo Group Limited, priority 2009, dated 2010).

These compounds were tested on Plasmodium falciparum (assay: In vitro anti-malarial activity against Plasmodium falciparum, IC50 assay / [3H]-Hypoxanthine incorporation assay). Conditions: Erythrocyte; Plasmodium falciparum strains in parasitized red blood cells, [3H]-hypoxanthine incorporation, 48 hours at 37°C.
Assay type: cell-based
Procedure: The compounds of this invention may be tested in one of several biological assays to determine the concentration of compound which is required to have a given pharmacological effect. In vitro anti-malarial activity against Plasmodium falciparum. IC50 assay / [^3H]-Hypoxanthine assay
The culture medium comprised RPMI 1640 with 25mM HEPES, sodium bicarbonate and glutamine (GIBCO™ cat. ref.: 52400), supplemented with 10% of pooled human sera AB (Irvine Scientific, cat. ref.: 5009) and HT supplement (0.15 mM hypoxanthine and 24 µM thymidine), (GIBCO™ cat. ref.: 41065). Human sera were decomplemented 30 min. at 56°C, aliquoted and stored frozen at -20°C until use in this culture medium.
This culture medium ("complete medium") was usually prepared fresh just before use and pre-warmed to 37°C.
Red blood cells O+ stock suspensions were prepared from whole blood bags coming from incomplete blood donation, provided by the Spanish Red Cross (<25 days after sampling). This "whole blood" was aliquoted and stored at 4°C.
To prepare red blood cells for the assay, the whole blood was centrifuged and washed 3 times with RPMI without serum. The upper phase, containing white blood cells was removed. The washed red blood cells were kept as a 50 % suspension in complete medium. The prepared cells were stored at 4°C and were employed in the assay at any time up to 4 days after preparation.
Test compounds were dissolved at 2 mg/ml in 100% DMSO on the day of the assay. If necessary, complete dissolution was achieved by gentle heating (the mixture was heated at a temperature <37°C) and sonication (sonication bath).
For IC50 determinations, 10 serial 2-fold dilutions were prepared in complete medium in the presence of a constant amount of DMSO. Any obvious signs of insolubility of the stock solutions in 100% DMSO or precipitation when these solutions were diluted in assay media, were recorded.
Plasmodium falciparum strains were maintained in complete medium at an hematocrit of 5% in continuous culture using a method adapted from that published by Trager and Jensen(1) and Traeger(2).
The parasitemia was calculated by counting the percentage of parasitized erythrocytes by optical microscopy. Thin films of blood were made every day from each culture flask, fixed with methanol and stained for 10 min. in Giemsa (Merck, cat. ref.: 1.09204) at 10 % in buffered water pH 7.2. The glass slides were observed and counted with an optical microscope (Nikon, Eclipse E200) equipped with a 100 X immersion oil objective.
The culture was maintained at an hematocrit of 5%, with a daily change of medium and was diluted when parasitemia had reached about 5%.
[^3H] Hypoxanthine incorporation assay was conducted using a method adapted from Desjardins et al. (3). The assays were performed in 96 wells flat bottom microplates. • 1. Serial dilutions of the test compounds (50µl of a 5X solution / well) were deposited in duplicate. Compounds of the invention were tested in this assay. Chloroquine and Atovaquone were used as control compounds for each assay. • 2. […] [^3H]-Hypoxanthine (Amersham Biosciences, cat. ref.: TRK74) was added extemporaneously to the inoculum suspension at a concentration of 1 µCi/ml (equating to […]). 200 µl of the resulting suspension was distributed into each well (other than the control well H12 described below) leading to a final volume of 250 µl per well, at 2% of hematocrit and 0.5 % of parasitemia / well. • 4. […]

| SMILES | IC50 [µg/mL] |
| --- | --- |
| Cc1[nH]c(C)c(-c2ccc(C#CCN(C)Cc3ccc(OC(F)(F)F)cc3)cc2)c(=O)c1Cl [Example 1, 3-Chloro-2,6-dimethyl-5-(4-{3-[methyl({4-[(trifluoromethyl)oxy]phenyl}methyl)amino]-1-propyn-1-yl}phenyl)-4(1H)-pyridinone] | < 0.125 |
| Cc1[nH]c(C)c(-c2ccc(C#CCN(C)Cc3ccc(C(F)(F)F)cc3)cc2)c(=O)c1Cl [Example 2, 3-Chloro-2,6-dimethyl-5-{4-[3-(methyl{[4-(trifluoromethyl)phenyl]methyl}amino)-1-propyn-1-yl]phenyl}-4(1H)-pyridinone] | < 0.125 |
| Cc1[nH]c(C)c(-c2ccc(C#CCN(C)Cc3ccccc3C(F)(F)F)cc2)c(=O)c1Cl [Example 3, 3-Chloro-2,6-dimethyl-5-{4-[3-(methyl{[2-(trifluoromethyl)phenyl]methyl}amino)-1-propyn-1-yl]phenyl}-4(1H)-pyridinone] | < 0.125 |
| Cc1[nH]c(C)c(-c2ccc(C#CCN(C)Cc3ccc(C(F)(F)F)cc3C(F)(F)F)cc2)c(=O)c1Cl [Example 4, 3-(4-{3-[{[2,4-Bis(trifluoromethyl)phenyl]methyl}(methyl)amino]-1-propyn-1-yl}phenyl)-5-chloro-2,6-dimethyl-4(1H)-pyridinone] | < 0.125 |
| CCCN(CC#Cc1ccc(-c2c(C)[nH]c(C)c(Cl)c2=O)cc1)Cc1ccc(OC(F)(F)F)cc1.O=C(O)C(F)(F)F [Example 6, 3-Chloro-2,6-dimethyl-5-(4-{3-[propyl({4-[(trifluoromethyl)oxy]phenyl}methyl)amino]-1-propyn-1-yl}phenyl)-4(1H)-pyridinone trifluoroacetate] | < 0.125 |
| Cc1[nH]c(C)c(-c2ccc(C#CCNCc3ccc(OC(F)(F)F)cc3)cc2)c(=O)c1Cl [Example 8, 3-Chloro-2,6-dimethyl-5-(4-{3-[({4-[(trifluoromethyl)oxy]phenyl}methyl)amino]-1-propyn-1-yl}phenyl)-4(1H)-pyridinone] | < 0.125 |
| COCCN(CC#Cc1ccc(-c2c(C)[nH]c(C)c(Cl)c2=O)cc1)Cc1ccc(OC(F)(F)F)cc1 [Example 9, 3-Chloro-2,6-dimethyl-5-(4-{3-[[2-(methyloxy)ethyl]({4-[(trifluoromethyl)oxy]phenyl}-methyl)amino]-1-propyn-1-yl}phenyl)-4(1H)-pyridinone] | < 0.125 |
| Cc1[nH]c(C)c(-c2ccc(C#CCN3CCC(c4ccccc4)CC3)cc2)c(=O)c1Cl [Example 10, 3-Chloro-2,6-dimethyl-5-{4-[3-(4-phenyl-1-piperidinyl)-1-propyn-1-yl]phenyl}-4(1H)-pyridinone] | < 0.125 |
| Cc1[nH]c(C)c(-c2ccc(C#CCN3CCC(c4ccc(OC(F)(F)F)cc4)CC3)cc2)c(=O)c1Cl.Cl [Example 11, 3-Chloro-2,6-dimethyl-5-{4-[3-(4-{4-[(trifluoromethyl)oxy]phenyl}-1-piperidinyl)-1-propyn-1-yl]phenyl}-4(1H)-pyridinone hydrochloride] | < 0.125 |
| Cc1[nH]c(C)c(-c2ccc(C#CCN(Cc3ccccc3)Cc3ccccc3)cc2)c(=O)c1Cl.Cl [Example 12, 3-(4-{3-[Bis(phenylmethyl)amino]-1-propyn-1-yl}phenyl)-5-chloro-2,6-dimethyl-4(1H)-pyridinone hydrochloride] | < 0.125 |
| Cc1[nH]c(C)c(-c2ccc(C#CCN3CCCCC3c3ccccc3)cc2)c(=O)c1Cl.Cl (stereo not drawn) [Example 13, 3-Chloro-2,6-dimethyl-5-{4-[3-(2-phenyl-1-piperidinyl)-1-propyn-1-yl]phenyl}-4(1H)-pyridinone hydrochloride] | < 0.125 |
| Cc1[nH]c(C)c(-c2ccc(C#CCN3CCc4cc(C(F)(F)F)ccc4C3)cc2)c(=O)c1Cl.Cl [Example 14, 3-Chloro-2,6-dimethyl-5-(4-(3-[6-(trifluoromethyl)-3,4-dihydro-2(1H)-isoquinolinyl]-1-propyn-1-yl}phenyl)-4(1H)-pyridinone hydrochloride] | < 0.125 |
| Cc1[nH]c(C)c(-c2ccc(C#CCN3CCc4cccc(C(F)(F)F)c4C3)cc2)c(=O)c1Cl.Cl [Example 15, 3-Chloro-2,6-dimethyl-5-(4-{3-[8-(trifluoromethyl)-3,4-dihydro-2(1H)-isoquinolinyl]-1-propyn-1-yl}phenyl)-4(1H)-pyridinone hydrochloride] | < 0.125 |
| Cc1[nH]c(C)c(-c2ccc(C#CCN(C)CCc3ccc(OC(F)(F)F)cc3)cc2)c(=O)c1Cl.Cl [Example 17, 3-Chloro-2,6-dimethyl-5-(4-{3-[methyl(2-{4-[(trifluoromethyl)oxy]phenyl}ethyl)amino]-1-propyn-1-yl}phenyl)-4(1H)-pyridinone hydrochloride] | < 0.125 |
| Cc1[nH]c(C)c(-c2ccc(C#CCCN(C)Cc3ccc(OC(F)(F)F)cc3)cc2)c(=O)c1Cl.Cl [Example 18, 3-Chloro-2,6-dimethyl-5-(4-{4-[methyl({4-[(trifluoromethyl)oxy]phenyl}methyl)amino]-1-butyn-1-yl}phenyl)-4(1H)-pyridinone hydrochloride] | < 0.125 |
| Cc1[nH]c(C)c(-c2ccc(C#CCN(C)Cc3ccc(OC(F)(F)F)cc3)cc2)c(=O)c1Cl.Cl [Example 19, 3-Chloro-2,6-dimethyl-5-(4-{3-[methyl({4-[(trifluoromethyl)oxy]phenyl}methyl)amino]-1-propyn-1-yl}phenyl)-4(1H)-pyridinone hydrochloride] | < 0.125 |
| CCCN(CC#Cc1ccc(-c2c(C)[nH]c(C)c(Cl)c2=O)cc1)Cc1ccc(OC(F)(F)F)cc1 [Example 20, 3-Chloro-2,6-dimethyl-5-(4-{3-[propyl({4-[(trifluoromethyl)oxy]phenyl}methyl)amino]-1-propyn-1-yl}phenyl)-4(1H)-pyridinone] | < 0.125 |
| CCCN(CC#Cc1ccc(-c2c(C)[nH]c(C)c(Cl)c2=O)cc1)Cc1ccc(OC(F)(F)F)cc1.Cl [Example 21, 3-Chloro-2,6-dimethyl-5-(4-{3-[propyl({4-[(trifluoromethyl)oxy]phenyl}methyl)amino]-1-propyn-1-yl}phenyl)-4(1H)-pyridinone hydrochloride] | < 0.125 |
| Cc1[nH]c(C)c(-c2ccc(C#CCN3CCC(c4ccc(OC(F)(F)F)cc4)CC3)cc2)c(=O)c1Cl.O=C(O)C(F)(F)F [Example 22, 3-Chloro-2,6-dimethyl-5-{4-[3-(4-{4-[(trifluoromethyl)oxy]phenyl}-1-piperidinyl)-1-propyn-1-yl]phenyl}-4(1H)-pyridinone trifluoroacetate] | < 0.125 |
| Cc1[nH]c(C)c(-c2ccc(CN(C)Cc3ccc(OC(F)(F)F)cc3)cc2)c(=O)c1Cl.Cl [Example 23, 3-Chloro-2,6-dimethyl-5-(4-{[methyl({4-[(trifluoromethyl)oxy]phenyl}methyl)amino]-methyl}phenyl)-4(1H)-pyridinone hydrochloride] | < 0.125 |
| Cc1[nH]c(C)c(-c2ccc(CN3CCC(c4ccc(OC(F)(F)F)cc4)CC3)cc2)c(=O)c1Cl.Cl [Example 24, 3-Chloro-2,6-dimethyl-5-{4-[(4-{4-[(trifluoromethyl)oxy]phenyl}-1-piperidinyl)methyl]-phenyl}-4(1H)-pyridinone hydrochloride] | < 0.125 |
| Cc1[nH]c(C)c(-c2cccc(CN(C)Cc3ccc(OC(F)(F)F)cc3)c2)c(=O)c1Cl.Cl [Example 25, 3-Chloro-2,6-dimethyl-5-(3-{[methyl({4-[(trifluoromethyl)oxy]phenyl}methyl)amino]-methyl}phenyl)-4(1H)-pyridinone hydrochloride] | < 0.125 |
| Cc1[nH]c(C)c(-c2ccc(-c3ccc(CN(C)Cc4ccc(OC(F)(F)F)cc4)s3)cc2)c(=O)c1Cl.O=C(O)C(F)(F)F [Example 26, 3-Chloro-2,6-dimethyl-5-[4-(5-{[methyl({4-[(trifluoromethyl)oxy]phenyl}methyl)amino]-methyl}-2-thienyl)phenyl] -4(1H)-pyridinone trifluoroacetate] | < 0.125 |
| Cc1[nH]c(C)c(-c2cccc(C#CCN3CCC(c4ccc(OC(F)(F)F)cc4)CC3)c2)c(=O)c1Cl.O=C(O)C(F)(F)F [Example 30, 3-Chloro-2,6-dimethyl-5-{3-[3-(4-{4-[(trifluoromethyl)oxy]phenyl}-1-piperidinyl)-1-propyn-1-yl]phenyl}-4(1H)-pyridinone trifluoroacetate] | < 0.125 |
